The target of one assay is Ubc9 (Homo sapiens, UniProt P63279). The conditions noted are these: cited from earlier work.
In a further assay the test system is SUMOylation. The following applies: cited from earlier work.
The next assay deals with E1 and E2. The following applies: cited from earlier work.
Assay [1] deals with T1, Kir2.1-mediated IK1 current (Rattus norvegicus, UniProt Q64273).
T1 construct: endogenous in cells; host or cells: rat ventricular cardiomyocytes (RVCMs)
T1 sequence (Q64273 1-427): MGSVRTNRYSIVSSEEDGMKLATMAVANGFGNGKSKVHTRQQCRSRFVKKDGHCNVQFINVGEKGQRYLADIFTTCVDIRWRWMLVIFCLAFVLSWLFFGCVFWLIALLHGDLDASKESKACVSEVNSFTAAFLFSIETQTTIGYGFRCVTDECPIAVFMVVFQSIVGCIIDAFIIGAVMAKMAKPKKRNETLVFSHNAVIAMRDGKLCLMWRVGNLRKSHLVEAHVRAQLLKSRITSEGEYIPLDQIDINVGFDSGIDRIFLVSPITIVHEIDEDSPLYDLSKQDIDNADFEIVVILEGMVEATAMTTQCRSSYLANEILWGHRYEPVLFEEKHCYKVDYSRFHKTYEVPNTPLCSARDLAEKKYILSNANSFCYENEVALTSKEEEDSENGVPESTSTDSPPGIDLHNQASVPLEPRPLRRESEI
Nature of the assay: Whole-cell patch-clamp of IK1 in rat ventricular cardiomyocytes under acute hypoxia. Format: cell-based. The protocol:
IK1 in rat ventricular cardiomyocytes studied by whole-cell patch-clamp. Hypoxia was a drop in O2 from ambient levels to 2%, measured at the cell. The time-course of hypoxic-inhibition was studied by recording the magnitude of IK1 every second. Cells were studied with the following pipette solutions: control, SUMO1 (1 μM) or SENP1 (2 μM). IK1 was blocked by the addition of 3 mM Ba^2+. […] Left, representative current sweeps; right, a representative time course showing the kinetics of hypoxic inhibition in cardiomyocytes studied with control pipette solution. The inhibition is precluded by including SENP1 (2 μM, magenta) in the recording pipette. The reverse ramp recording protocol is inset. […] SENP1 augments IK1 and protects the current from hypoxia. Data are from 8-10 RVCMs per group, **** P<0.0001, paired, two-tailed Student's […]. […] Representative data are shown with DAPI labeled nuclei and PLA interactions. Summary data are obtained from multiple experiments each with multiple fields of view containing 20-30 nuclei. The scale bar is 10 μm.
(§1) To knockdown Kir2.1 expression, RVCMs were transduced with lentiviral particles carrying cGFP and shRNA targeting KCNJ2-mRNA for the channel. Kir2.1 knockdown cells (Kir2.1kd-CMs) were identified by expression of cGFP. Cells were studied with control pipette solution, or with pipette solutions containing purified SUMO1 (1 μM) or SENP1 (2 μM). Where indicated, the control pipette solution contained diC8 PIP2. Paired patch-clamp data were analyzed by Students t-test; ***, P<0.01. […] Kir2.1kd-CMs are identified by expression of GFP (inset, scale bar=10 μm). […] The arrow indicates the change in current-magnitude between exposure to ambient O2 and 2% O2 in the same cell. Right, Concentration-response curve showing that including diC8-PIP2 in the pipette opposes hypoxic-inhibition of IK1 in control RVCMs and RVCMs expressing the scrambled shRNA. The hypoxic-response is diminished in Kir2.1kd-CMs. Data are mean±s.d. for 7-8 cells per condition. […] Current inhibition is diminished when SENP1 is included in the recording pipette and is not observed when SUMO-insensitive Kir2.1-K49Q channels are studied. Data are mean±s.d. for 6 cells per condition.
Hypoxic-inhibition of Kir2.1 in cardiomyocytes via SUMOylation. We studied the effects of acute hypoxia on IK1 in rat ventricular cardiomyocytes (RVCMs) by whole cell patch-clamp recording. […] Both the hypoxia-sensitive and insensitive components of the current were blocked by Ba^2+ (3 mM), consistent with the known role of Kir2 channels in mediating IK1 (FIG. 1a). To determine if SUMOylation mediates the hypoxic inhibition of IK1 we introduced purified SENP1 (2 μM) to the cytosol via the recording pipette. […] Both the SUMO1 and hypoxia-mediated inhibition of IK1 remained stable throughout the remainder of the experiment (up to 10 mins). […] Next, we visualized and quantified the interactions between native Kir2.1 and SUMO1 in RVCMs using the proximity-ligation association (PLA) assay with antibodies we validated in heterologous cells by Western blot. […] The validated Kir2 antibodies were paired with SUMO1 antibodies that we have tested and utilized before. Under control conditions, interactions were observed between Kir2.1 and SUMO1, but not between Kir2.2 or Kir2.3 and SUMO1. […] Although cardiomyocytes are typically cultured at 21% O2, the O2-level in the myocardium is estimated to be in the range of 5-10% O2, under physiological conditions.
Hypoxic-inhibition of IK1/Kir2.1 is reduced by diC8-PIP2 in a concentration-dependent manner. We have shown that adding the exogenous, soluble PIP2 analog diC8-PIP2 into the patch-pipette opposes hypoxic-inhibition of IK1 (FIG. 4). […] As before, the effects of hypoxia were ameliorated by SENP1 (2 μM) and were not observed in the SUMO and hypoxia insensitive Kir2.1-K49Q channels (FIG. 4D).
For orientation: The patch-clamp technique gives a direct electrical read-out from membranes.

In a further assay the target is T2, Kir2.1 channels (Homo sapiens, UniProt P63252).
T2 construct: expressed in transfected cells; host or cells: HEK293T
T2 sequence (P63252 1-427): T1 sequence (Q64273 1-427) with S119G, C336Y, E388D, S402T, G405D
Nature of the assay: Whole-cell patch-clamp of heterologous Kir2.1 channels in HEK293T cells under hypoxia. The format is cell-based. The following applies: agent in recording pipette (SENP1 2 μM). The protocol:
as §1
Hypoxic-inhibition of IK1/Kir2.1 is reduced by diC8-PIP2 in a concentration-dependent manner. We have shown that adding the exogenous, soluble PIP2 analog diC8-PIP2 into the patch-pipette opposes hypoxic-inhibition of IK1 (FIG. 4). […]

The target in assay [2] is T3, SUMO activating enzyme (SAE) (Homo sapiens, UniProt Q9UBE0+Q9UBT2).
T3 sequence (Q9UBE0 1-346): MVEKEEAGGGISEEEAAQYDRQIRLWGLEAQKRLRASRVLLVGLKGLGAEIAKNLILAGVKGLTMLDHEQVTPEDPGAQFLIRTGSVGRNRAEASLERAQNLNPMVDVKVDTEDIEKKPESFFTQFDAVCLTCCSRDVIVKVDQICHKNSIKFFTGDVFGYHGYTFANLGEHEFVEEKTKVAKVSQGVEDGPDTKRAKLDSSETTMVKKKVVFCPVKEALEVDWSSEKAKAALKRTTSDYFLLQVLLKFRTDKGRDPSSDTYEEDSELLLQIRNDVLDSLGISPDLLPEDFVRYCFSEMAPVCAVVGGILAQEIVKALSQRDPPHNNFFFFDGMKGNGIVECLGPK
T3 sequence (Q9UBT2 1-640): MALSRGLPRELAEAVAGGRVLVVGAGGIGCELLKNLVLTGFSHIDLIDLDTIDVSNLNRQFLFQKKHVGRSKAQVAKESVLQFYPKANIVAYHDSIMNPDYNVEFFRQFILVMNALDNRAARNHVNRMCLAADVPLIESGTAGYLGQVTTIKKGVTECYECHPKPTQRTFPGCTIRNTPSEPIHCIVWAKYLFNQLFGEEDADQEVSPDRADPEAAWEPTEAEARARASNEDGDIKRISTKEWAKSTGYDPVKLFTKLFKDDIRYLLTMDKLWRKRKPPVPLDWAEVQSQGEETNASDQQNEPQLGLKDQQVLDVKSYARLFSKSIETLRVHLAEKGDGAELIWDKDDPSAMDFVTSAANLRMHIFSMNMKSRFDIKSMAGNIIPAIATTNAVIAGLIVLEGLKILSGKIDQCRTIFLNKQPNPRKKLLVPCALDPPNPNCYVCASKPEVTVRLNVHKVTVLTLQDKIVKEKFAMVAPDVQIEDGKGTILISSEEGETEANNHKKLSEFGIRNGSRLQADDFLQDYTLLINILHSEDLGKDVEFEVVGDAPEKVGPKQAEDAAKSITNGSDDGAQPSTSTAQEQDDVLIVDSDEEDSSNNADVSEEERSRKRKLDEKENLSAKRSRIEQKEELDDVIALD
The following applies: cited from earlier work.

The next assay addresses T4, Kir2.4 (Homo sapiens, UniProt Q9UNX9).
T4 sequence (Q9UNX9 1-436): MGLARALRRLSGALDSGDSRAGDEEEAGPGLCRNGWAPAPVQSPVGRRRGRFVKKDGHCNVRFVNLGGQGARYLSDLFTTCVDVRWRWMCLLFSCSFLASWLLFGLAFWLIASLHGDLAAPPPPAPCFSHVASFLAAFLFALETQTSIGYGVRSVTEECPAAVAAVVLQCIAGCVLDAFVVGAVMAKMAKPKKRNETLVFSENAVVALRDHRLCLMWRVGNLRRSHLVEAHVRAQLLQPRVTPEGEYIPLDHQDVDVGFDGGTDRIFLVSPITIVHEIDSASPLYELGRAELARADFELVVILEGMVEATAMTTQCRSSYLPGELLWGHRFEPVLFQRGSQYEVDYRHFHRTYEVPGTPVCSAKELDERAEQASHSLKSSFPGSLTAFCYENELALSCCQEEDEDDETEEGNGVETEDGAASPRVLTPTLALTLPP
Nature of the assay: Whole-cell patch-clamp of Kir2.4 in HEK293 cells with SUMO1 or SENP1 in the recording pipette. Set-up: expressed in transfected cells. The format is cell-based. The following applies: 1 nM in pipette; 140 mM bath K+; within one-minute of breakthrough. As for the experimental part:
Currents were measured at −80 mV in 140 mM external K+.
Similarly, currents were no longer enhanced by SENP1.
SUMOylation regulates Kir2.4 channels in mammalian cells. Next, we tested if SUMO could regulate Kir2.4 channels in mammalian cells. Kir2.4 channels were transiently expressed in HEK293 cells and studied in whole-cell mode with 140 mM bath [K]^+, using a ramp protocol from −80 to +80 mV. Purified SUMO1 or SENP1 peptide were introduced via the recording pipette. At 1 nM, SUMO1, but not heat-denatured SUMO1, inhibited Kir2.4 currents by ˜40 and 60%, respectively, within one-minute of breakthrough. In contrast, 1 nM SENP1 increased the current by ˜50% (FIG. 7).
The PIP2-dependence of SUMO-regulation. Using the 5-ptaseOCRL system, we depleted PIP2 in HEK293 cells expressing Kir2.4 and studied currents with 1 nM SUMO1, or SENP1 in the recording pipette. When currents were recorded after 5-min activation of the optogenetic probe, 5-ptaseOCRL, the inhibitory effect of 1 nM SUMO1 on Kir2.4 was reduced from ˜40% to ˜7% (FIG. 9). Current augmentation observed with SENP1 in the pipette was reduced from […] to ˜6%. These preliminary data support the conclusion that SUMO-regulation of Kir2.4 channels is PIP2-dependent.

Numbering of substitutions follows the chain as printed.

Sequence of Ubc9 (P63279 whole entry): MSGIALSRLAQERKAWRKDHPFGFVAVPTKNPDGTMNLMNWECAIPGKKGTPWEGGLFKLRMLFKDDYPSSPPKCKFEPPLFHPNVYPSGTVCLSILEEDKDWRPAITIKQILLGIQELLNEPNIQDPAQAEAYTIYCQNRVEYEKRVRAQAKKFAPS

Consider viomellein, for which the “Ubc9 (SUMO-E2) inhibition” value on Ubc9 is “inhibitors of SUMO-E2”. As to chaetochromin A, on Ubc9, the “Ubc9 (SUMO-E2) inhibition” value is “inhibitors of SUMO-E2”. For `CSC1=C(N)C(=O)c2[nH]cc(CO)c2C1=N` [macrophilone A], in the assay on SUMOylation, the SUMOylation inhibition result is “demonstrated SUMOylation inhibitory activity through formation of ROS”. Further, the “ROS generation and E1/E2 crosslinking” value in the assay on E1 and E2 is “generated ROS and subsequent E1 and E2 crosslinking”. With `[Ba+2]` [Ba^2+], the “block of IK1 (hypoxia-sensitive and insensitive components)” value in assay [1] (3 mM) was “blocked”. Regarding `CCCCCCCC(=O)OC[C@H](COP(=O)(O)O[C@@H]1[C@H](O)[C@H](O)[C@@H](OP(=O)(O)O)[C@H](OP(=O)(O)O)[C@H]1O)OC(=O)CCCCCCC` [diC8-PIP2], in assay [1] (100 μM diC8-PIP2 in pipette, wild-type RVCMs, ~40% without), the “hypoxic inhibition of IK1” value is reported as around 15%. The “effect on hypoxic inhibition of IK1” value in assay [1] (ambient O2 to 2% O2, agent in pipette (SENP1 2 μM, SUMO1 1 μM, diC8-PIP2) or pretreatment (TAK981)) was “diminished the hypoxic-inhibition of IK1 in a concentration-dependent manner”. Besides, the “effect on hypoxic inhibition of Kir2.1 channels” value at Kir2.1 channels is “concentration-dependent reduction in hypoxic inhibition”. As to `c1coc(-c2cc(CNc3ncnc4sc5cnccc5c34)no2)c1` [Compound 22], in assay [2], the “formation of the E1-SUMO complex” value is reported as “unable to block formation of the E1-SUMO complex”. Moreover, the “selectivity for the SUMOylation pathway” value on Ubc9 is “modest selectivity for the SUMOylation pathway”. Consider `CO/C(=C/C(=O)O)[C@H]1c2cc3ccc(-c4ccc5cc6c(c(O)c5c4O)C(=O)C[C@@](C)(O)[C@H]6/C(=C\C(=O)O)OC)c(O)c3c(O)c2C(=O)C[C@@]1(C)O` [spectomycin B1], for which, at Ubc9, the “Ubc9 (SUMO-E2) inhibition” value is “inhibitors of SUMO-E2”. Regarding `Cc1cc(NC(=O)c2ccc(S(=O)(=O)N3CCC(C)CC3)cc2)ccc1NC(=O)Cn1cccn1` [Compound 26], the “formation of the SUMO-E2 complex” value on Ubc9 is “inhibited formation of the SUMO-E2 complex”. `COC1=C(N)C(=O)c2[nH]cc(CO)c2C1=N` [Compound 61]: in the assay with E1 and E2, the “ROS generation and E1/E2 crosslinking” value was “generated ROS and subsequent E1 and E2 crosslinking”. For `C[C@@H](C(=O)Nc1ccc(NC(=O)c2ccc(C(=O)c3ccccc3)cc2)cc1)n1cccn1` [Compound 27], the “formation of the SUMO-E2 complex” value at Ubc9 was “inhibited formation of the SUMO-E2 complex”.

As to “heat-denatured SUMO1: heat-denatured SUMO1 peptide, control”, in the assay with Kir2.4, the “inhibition of Kir2.4 currents” value is “not”.

With `O=c1cc(-c2ccc(O)c(O)c2O)oc2ccccc12` [Compound 2-D08], on Ubc9, the “Ubc9 (SUMO-E2) inhibition” value is reported as “inhibits Ubc9 by preventing the transfer of SUMO from Ubc9 to the substrate”.

Values taken from US20240358731A1, “SUMO PATHWAY AS AN OXYGEN SENSOR RELEVANT TO THE PATHOPHYSIOLOGY OF PULMONARY ARTERY HYPERTENSION AND CARDIAC ARRHYTHMIA” (Northeastern University, priority 2023, published 2024).
